Results published in US9902725B2, “Heterocyclic derivatives as RORgamma modulators” (GENFIT, priority 2014, dated 2018).

Legend:
[1] = Microsomal stability, human microsomes (CEREP); format: in vitro ADME; details: 0.1 μM, 0.1 mg/mL microsomal protein
Method: (§1) All the assays were conducted at CEREP (CEREP, France and USA). Metabolic compound stability was tested in human (CEREP, Ref 607) and mouse (CEREP, Ref: 806) microsomes. Inhibition of human drug-metabolizing cytochromes P450 was tested on the five most commonly responsible enzymes of metabolism of xenobiotics, CYP1A2 (CEREP, Ref 389), CYP2C9 (CEREP, Ref 412), CYP2C19 (CEREP, Ref 390), CYP2D6 (CEREP, Ref 1338) and CYP3A4 (CEREP, Ref 391).
(§2) Briefly, the standard conditions for CEREP's stability assays include incubation of test compound at 0.1 μM with human or mouse microsomes for 60 minutes in duplicate. The protein concentration of microsomes is 0.1 mg/mL. The parent compound is detected by HPLC-MS/MS analysis. The quantity of the parent compound that remains intact upon 60 minutes of microsome exposure (% remaining) is calculated by comparing the peak area of the parent compound at 60 minutes of exposure to the time zero.

[2] = Microsomal stability, mouse microsomes (CEREP); format: in vitro ADME; details: 0.1 μM, 0.1 mg/mL microsomal protein
Method: as §1, §2

CYP1A2 = target: T1, CYP1A2 (Homo sapiens, UniProt P05177); experiment: CYP inhibition CYP1A2 (CEREP); format: in vitro ADME; details: human recombinant CYP, single concentration (typically 10 μM)
T1 sequence (P05177 1-516): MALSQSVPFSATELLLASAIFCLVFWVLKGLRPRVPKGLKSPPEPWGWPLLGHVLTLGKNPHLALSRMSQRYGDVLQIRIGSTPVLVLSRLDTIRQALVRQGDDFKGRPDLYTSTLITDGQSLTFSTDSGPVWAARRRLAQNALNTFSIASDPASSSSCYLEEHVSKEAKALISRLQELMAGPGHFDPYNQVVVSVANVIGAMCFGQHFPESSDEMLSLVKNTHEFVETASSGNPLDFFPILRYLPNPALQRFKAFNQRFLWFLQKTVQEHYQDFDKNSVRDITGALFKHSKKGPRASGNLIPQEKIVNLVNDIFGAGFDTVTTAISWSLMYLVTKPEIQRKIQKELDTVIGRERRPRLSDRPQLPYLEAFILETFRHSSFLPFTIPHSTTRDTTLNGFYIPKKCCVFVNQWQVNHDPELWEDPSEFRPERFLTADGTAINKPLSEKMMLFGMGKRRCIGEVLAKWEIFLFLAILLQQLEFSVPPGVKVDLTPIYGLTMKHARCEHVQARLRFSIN
Method: as §1
(§3) Briefly, CEREP's CYP inhibition assay uses traditional probe substrates, which are specific to individual CYP isoforms. 3-cyano-7-ethoxycoumarin is mainly catalyzed by CYP1A2 and CYP2C19, 3-[2-(N,N-diethyl-N-methylammonium)ethyl]-7-methoxy-4-methylcoumarin for CYP2C9 and CYP2D6 and finally, 7-benzyloxy-4-trifluoromethylcoumarin is pathway catalyzed predominantly by CYP3A4. The inhibition assays were performed with human recombinant CYP isoforms preparations. HPLC MS/MS methods are used to detect metabolites in these assays. Compounds were tested at single concentrations (typically 10 μM) and data were expressed as percent of control inhibition.

CYP2C9 = CYP2C9 (Homo sapiens, UniProt P11712); experiment: CYP inhibition CYP2C9 (CEREP); format: in vitro ADME; details: single concentration (typically 10 μM)
Sequence of CYP2C9 (P11712 whole entry): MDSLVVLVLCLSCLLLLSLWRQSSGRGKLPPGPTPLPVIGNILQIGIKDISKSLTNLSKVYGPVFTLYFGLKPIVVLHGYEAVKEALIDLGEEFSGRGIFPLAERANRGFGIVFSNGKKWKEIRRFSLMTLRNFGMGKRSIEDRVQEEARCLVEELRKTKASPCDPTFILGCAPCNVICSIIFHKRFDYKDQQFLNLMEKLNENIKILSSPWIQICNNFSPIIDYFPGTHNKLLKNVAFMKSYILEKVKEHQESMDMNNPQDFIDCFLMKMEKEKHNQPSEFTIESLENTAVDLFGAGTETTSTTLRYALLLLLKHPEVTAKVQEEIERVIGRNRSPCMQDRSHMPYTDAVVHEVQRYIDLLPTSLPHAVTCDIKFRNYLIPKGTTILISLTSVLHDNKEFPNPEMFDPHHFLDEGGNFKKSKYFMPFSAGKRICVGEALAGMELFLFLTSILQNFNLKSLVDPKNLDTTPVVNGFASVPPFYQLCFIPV
Method: as §1, §3

CYP2C19 = CYP2C19 (Homo sapiens, UniProt P33261); experiment: CYP inhibition CYP2C19 (CEREP); format: in vitro ADME; details: single concentration (typically 10 μM)
Sequence of CYP2C19 (P33261 whole entry): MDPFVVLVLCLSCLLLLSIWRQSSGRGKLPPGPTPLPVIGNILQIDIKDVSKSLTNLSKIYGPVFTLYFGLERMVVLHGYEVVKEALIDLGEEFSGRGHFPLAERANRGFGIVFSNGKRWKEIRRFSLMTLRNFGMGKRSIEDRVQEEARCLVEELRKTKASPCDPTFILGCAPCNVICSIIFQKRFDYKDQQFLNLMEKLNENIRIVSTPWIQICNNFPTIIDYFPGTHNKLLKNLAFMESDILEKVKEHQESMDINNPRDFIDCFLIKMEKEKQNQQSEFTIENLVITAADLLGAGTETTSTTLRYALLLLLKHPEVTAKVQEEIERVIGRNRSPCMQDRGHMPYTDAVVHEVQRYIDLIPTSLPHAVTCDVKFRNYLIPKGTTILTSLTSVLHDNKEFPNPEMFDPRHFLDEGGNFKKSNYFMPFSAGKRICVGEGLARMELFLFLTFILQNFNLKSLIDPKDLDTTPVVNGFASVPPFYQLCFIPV
Method: as §1, §3

CYP2D6 = CYP2D6 (Homo sapiens, UniProt P10635); experiment: CYP inhibition CYP2D6 (CEREP); format: in vitro ADME; details: single concentration (typically 10 μM)
Sequence of CYP2D6 (P10635 whole entry): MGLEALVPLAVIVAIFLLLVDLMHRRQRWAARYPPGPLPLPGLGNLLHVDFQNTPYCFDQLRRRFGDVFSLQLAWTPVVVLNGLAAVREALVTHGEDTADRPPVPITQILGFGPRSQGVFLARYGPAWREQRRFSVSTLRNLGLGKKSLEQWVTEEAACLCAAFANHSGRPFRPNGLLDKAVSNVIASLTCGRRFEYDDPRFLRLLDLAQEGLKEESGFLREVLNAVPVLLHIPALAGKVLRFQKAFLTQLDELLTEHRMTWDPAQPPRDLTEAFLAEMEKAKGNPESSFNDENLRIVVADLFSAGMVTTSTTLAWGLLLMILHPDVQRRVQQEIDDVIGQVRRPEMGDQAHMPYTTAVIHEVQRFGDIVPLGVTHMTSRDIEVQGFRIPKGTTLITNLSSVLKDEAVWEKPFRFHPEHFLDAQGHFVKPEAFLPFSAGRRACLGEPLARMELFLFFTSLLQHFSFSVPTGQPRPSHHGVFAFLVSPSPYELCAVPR
Method: as §1, §3

CYP3A4 = CYP3A4 (Homo sapiens, UniProt P08684); experiment: CYP inhibition CYP3A4 (CEREP); format: in vitro ADME; details: single concentration (typically 10 μM)
Sequence of CYP3A4 (P08684 whole entry): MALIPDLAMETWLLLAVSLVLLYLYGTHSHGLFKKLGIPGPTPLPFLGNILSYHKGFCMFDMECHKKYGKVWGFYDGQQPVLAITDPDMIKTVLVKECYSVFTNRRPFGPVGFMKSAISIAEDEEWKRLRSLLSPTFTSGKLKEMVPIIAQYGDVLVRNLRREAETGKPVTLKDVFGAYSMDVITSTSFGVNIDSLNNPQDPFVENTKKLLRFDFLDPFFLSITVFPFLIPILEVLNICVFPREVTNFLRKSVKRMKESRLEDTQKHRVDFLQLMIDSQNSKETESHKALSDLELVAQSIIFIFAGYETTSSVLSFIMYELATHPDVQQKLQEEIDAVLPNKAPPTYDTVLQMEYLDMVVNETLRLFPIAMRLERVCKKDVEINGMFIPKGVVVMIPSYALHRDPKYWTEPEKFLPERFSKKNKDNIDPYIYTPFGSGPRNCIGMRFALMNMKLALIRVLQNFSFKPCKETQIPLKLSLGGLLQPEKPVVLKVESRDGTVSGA
Method: as §1, §3

MOG-induced EAE mice = experiment: MOG-induced EAE in mice, clinical score; format: in vivo
Method: 8-10 week old, male C57BL/6 mice were purchased from Janvier Lab (St Berthevin, France) and housed in a specific pathogen free (SPF) animal facility for one week before the start of the studies. Peptide antigen MOG35-55 (Myelin Oligodendrocyte Glycoprotein) ([…], SEQ ID NO:1, Polypeptide group, France) was dissolved in PBS and emulsified with an equal volume of Complete Freund's Adjuvant (CFA) containing 5 mg/mL of mycobacteria and administrated by subcutaneous injection at the dorsal flanks on day 0 at 200 μg/mouse. To ensure induction of reliable EAE, 200 ng of Bordetella pertussis toxin (Sigma) was given via intraperitoneal injection at day 0 and 2 (Cua, Sherlock et al. 2003; Zhang, Gran et al. 2003). Animals were treated with drug beginning 2 days before peptide injection. Animals were randomized into groups for treatment by weight, so that the average weight of each group was similar. The groups were segregated by cage. Compounds according to the invention were suspended in Carboxymethyl Cellulose (CMC) 1% (Sigma) and Tween80 0.1% (Sigma) by sonication and animals were dosed daily by gavage with 10 mL/kg body weight. The daily dose of Cpd. 1 was 30 mg/kg and vidofludimus (reference compound) at 60 mg/kg in protocol 1 to assess IL-17 A and IL-17F secretion from splenocytes ex vivo. In protocol 2, mice were treated with Cpd. 1 at 3 and 10 mg/Kg or T4 compound at 1 and 10 mg/kg daily by gavage to assess the clinical score. Clinical assessment of EAE was performed daily according to the following criteria: 0) no disease, 1) limp tail, 2) weak/partially paralyzed hind legs, 3) completely paralyzed hind legs, 4) complete hind and partial front leg paralysis, and 5) complete paralysis/death. For Cytokine quantifications, mice were euthanized 20 days after EAE induction. Spleen-isolated cells were collected and adjusted to 2×10^6 cells/mL. Cells were cultured in complete RPMI medium (RPMI supplemented with 10% of fetal calf serum, 1% glutamine, and 1% penicillin/streptomycin). Spleen cells were stimulated with MOG (20 μg/mL) (Polypeptide group, France). Cytokine levels were evaluated 48 h later by ELISA (R&D Systems Europe) or HTRF (CisBio, France) in culture supernatants using IL-17A and IL-17-F according to the manufacturer's protocols. The statistical significance was based on Student's t test (p<0.05, unpaired test).

multiple sclerosis model = details: administered by injection; cited from earlier work
psoriasis model = details: administered by injection; cited from earlier work
[3] = test system: refractory Crohn diseased patients; details: phase IIb; cited from earlier work

Cc1ccc(C(NC(=O)Cc2ccc3oc(C(O)c4c(C)noc4C)cc3c2)c2ccccc2)c(C)c1 (single isomer, unassigned) [Cpd. T-3, 2-(2-(hydroxy(3,5-dimethylisoxazol-4-yl)methyl)benzofuran-5-yl)-N-((2,4-dimethylphenyl)(phenyl)methyl)acetamide, reference compound]
Human microsomes (% Cpd. remaining at 60 min) [1]: 0% | Mouse microsomes (% Cpd. remaining at 60 min) [2]: 0% | CYP 1A2 (% inhibition of Control) (CYP1A2): −5% | CYP 2C9 (% inhibition of Control) (CYP2C9; human recombinant CYP): 75% | CYP 2C19 (% inhibition of Control) (CYP2C19; human recombinant CYP): 92% | CYP 2D6 (% inhibition of Control) (CYP2D6; human recombinant CYP): 19% | CYP 3A4 (% inhibition of Control) (CYP3A4; human recombinant CYP): 93%

Cc1ccc(C(NC(=O)Cc2ccc3oc(C(O)c4c(C)noc4C)cc3c2)c2ccccc2)c(C)c1 (single isomer, unassigned) [Cpd. T-4, 2-(2-(hydroxy(3,5-dimethylisoxazol-4-yl)methyl)benzofuran-5-yl)-N-((2,4-dimethylphenyl)(phenyl)methyl)acetamide, reference compound]
Human microsomes (% Cpd. remaining at 60 min) [1]: 0% | Mouse microsomes (% Cpd. remaining at 60 min) [2]: 0% | CYP 1A2 (% inhibition of Control) (CYP1A2): −3% | inhibition at 10 µM (CYP2C9; human, recombinant CYP2C9, human recombinant CYP, read-out: CYP 2C9 (% inhibition of Control)): 73% | inhibition at 10 µM (CYP2C19; human, recombinant CYP2C19, probe 3-cyano-7-ethoxycoumarin, read-out: CYP 2C19 (% inhibition of Control)): 85% | inhibition at 10 µM (CYP2D6; human, recombinant CYP2D6, human recombinant CYP, read-out: CYP 2D6 (% inhibition of Control)): 31% | inhibition at 10 µM (CYP3A4; human, recombinant CYP3A4, probe 7-benzyloxy-4-trifluoromethylcoumarin, read-out: CYP 3A4 (% inhibition of Control)): 82% | EAE clinical score (MOG-induced EAE mice; daily by gavage, Cpd. 1 at 3 and 10 mg/Kg, T4 compound at 1 and 10 mg/kg): wasn't effective

CC(=O)Nc1nc(C)c(S(=O)(=O)Nc2ccc(C(O)(C(F)(F)F)C(F)(F)F)cc2)s1 [SR1001]
efficacy in multiple sclerosis model (multiple sclerosis model): efficacious

Cc1ccc([C@@H](NC(=O)Cc2ccc3oc([C@@H](O)c4c(C)noc4C)cc3c2)c2ccccc2)c(C)c1 [TMP778]
efficacy in psoriasis model (psoriasis model): efficacious

Cc1ccc(C(NC(=O)Cc2ccc3oc(C(O)c4c(C)noc4C)cc3c2)c2ccccc2)c(C)c1 (centres unmarked) [compound T, 2-(2-(hydroxy(3,5-dimethylisoxazol-4-yl)methyl)benzofuran-5-yl)-N-((2,4-dimethylphenyl)(phenyl)methyl)acetamide, reference compound]
onset of EAE (MOG-induced EAE mice; administered p/os (orally) for 20 days): ineffective | efficacy in psoriasis model (psoriasis model): efficacious

Ustekinumab: anti-p40 monoclonal antibody that targets Th17 and Th1 through IL-23 and IL-12
clinical efficacy in refractory Crohn diseased patients [3]: clinical (phase IIb) efficacy
